Literature values as cited in patent US4632934A, “Imidazole derivatives and pharmaceutical use thereof” (Kissei Pharmaceutical Co., Ltd., priority 1978, dated 1986).

system: thromboxane synthetase; settings: prior art literature

Compound	inhibitory effect on thromboxane synthetase (in words)
CCCCCCCCCCn1ccnc1 [1-decylimidazole]	strong inhibitory effect
c1c[nH]cn1 [imidazole]	very weak inhibitory effect
c1ccc(Cn2ccnc2)cc1 [1-benzylimidazole]	strong inhibitory effect

Other lines, results leading:

inhibitory effect on thromboxane synthetase (in words)	Compound
strong inhibitory effect	CC(C)c1ccccc1-n1ccnc1 [1-(2-isopropylphenyl)imidazole]
strong inhibitory effect	CCCCCCCCCn1ccnc1 [1-nonylimidazole]
